From ChEMBL document CHEMBL1201862, “PubChem BioAssay data set” (2004)
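Briefly, cells in 96-well plates were exposed to five compound concentrations for 48 h, and endpoints were estimated by linear interpolation. GI50 is the concentration that inhibits growth by half.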 The source made the active and inactive calls. Rule as the data show it: active = GI50 up to about 1.1 µM and inactive = higher.

Tests used:
Assay in all cases: NCI-60 cell line screen, 48 h
786-0 = tested on: 786-0
A549 = tested on: A549
BT-549 = tested on: BT-549
CAKI-1 = tested on: CAKI-1
DU-145 = tested on: DU-145
HL-60 = tested on: HL-60
IGROV-1 = tested on: IGROV-1
LOX IMVI = tested on: LOX IMVI
MDA-MB-231 = tested on: MDA-MB-231
MDA-N = tested on: MDA-N
NCI/ADR-RES = tested on: NCI/ADR-RES
OVCAR-4 = tested on: OVCAR-4
OVCAR-5 = tested on: OVCAR-5
PC-3 = tested on: PC-3
SF-268 = tested on: SF-268
SK-MEL-2 = tested on: SK-MEL-2
SNB-78 = tested on: SNB-78
T47D = tested on: T47D
UACC-62 = tested on: UACC-62
SK-MEL-5 = tested on: SK-MEL-5

Measured: GI50

O=c1n(CC2CO2)c(=O)n(CC2CO2)c(=O)n1CC1CO1 (stereo not given) [TEROXIRONE]
inactive: 786-0 6.22 µM | A549 13.7 µM | BT-549 11.5 µM | CAKI-1 8.04 µM | DU-145 6.97 µM | HL-60 1.55 µM | IGROV-1 39.2 µM | LOX IMVI 14.1 µM | MDA-MB-231 26.4 µM | MDA-N 20.8 µM | NCI/ADR-RES 34 µM | OVCAR-4 45.2 µM | OVCAR-5 67.8 µM | PC-3 25 µM | SF-268 14.3 µM | SK-MEL-2 90.2 µM | SNB-78 110 µM | T47D 17.3 µM | UACC-62 2.49 µM

CCOc1ccc(NC(=O)/C(Cc2nc3ccccc3nc2O)=N\O)cc1
inactive: 786-0 > 100 µM | A549 > 100 µM | CAKI-1 > 100 µM | HL-60 > 10 µM | IGROV-1 > 100 µM | LOX IMVI > 100 µM | OVCAR-4 > 100 µM | OVCAR-5 > 100 µM | SF-268 > 100 µM | SK-MEL-2 > 100 µM | SK-MEL-5 > 100 µM | SNB-78 > 100 µM | UACC-62 > 100 µM

COC1/C=C/OC2(C)Oc3c(C)c(O)c4c(c3C2=O)C(=O)C=C(NC(=O)/C(C)=C\C=C\C(C)C(OC=O)C(C)C(O)C(C)C(OC(C)=O)C1C)C4=O (stereo not given)
inactive: 786-0 8.24 µM | A549 21 µM | BT-549 11.1 µM | CAKI-1 12 µM | DU-145 18.8 µM | HL-60 2.33 µM | IGROV-1 18.5 µM | LOX IMVI 7.5 µM | MDA-MB-231 13.4 µM | MDA-N 15.8 µM | NCI/ADR-RES 17.5 µM | OVCAR-4 7.4 µM | OVCAR-5 20.7 µM | PC-3 10.3 µM | SF-268 17.7 µM | SK-MEL-2 20 µM | SK-MEL-5 15.8 µM | SNB-78 20.1 µM | T47D 3.65 µM | UACC-62 12.7 µM

CC(C)(C)c1cc(Oc2ccc(C#N)c(C#N)c2)cc(C(C)(C)C)c1
inactive: 786-0 90.2 µM | A549 > 100 µM | CAKI-1 > 100 µM | HL-60 > 100 µM | IGROV-1 > 100 µM | LOX IMVI 33.4 µM | OVCAR-4 > 100 µM | OVCAR-5 > 100 µM | SF-268 > 100 µM | SK-MEL-2 > 100 µM | SK-MEL-5 > 100 µM | SNB-78 > 100 µM | UACC-62 > 100 µM

CC(C)C(Nc1c2ccccc2[n+]([O-])c2ccccc12)C(=O)O (stereo not given)
inactive: 786-0 > 100 µM | A549 > 100 µM | CAKI-1 > 100 µM | HL-60 26.2 µM | IGROV-1 > 100 µM | LOX IMVI 50.9 µM | OVCAR-4 65.8 µM | OVCAR-5 > 100 µM | SF-268 55.3 µM | SK-MEL-2 84.9 µM | SK-MEL-5 34.2 µM | SNB-78 > 100 µM | UACC-62 57.3 µM

O=C(CC(=O)Nc1cccc(Cl)c1)NNCC(=O)Nc1nnc(-c2ccccc2)s1
inactive: 786-0 16.4 µM | A549 > 100 µM | CAKI-1 > 100 µM | HL-60 25.7 µM | IGROV-1 > 100 µM | LOX IMVI 43.2 µM | OVCAR-4 2.46 µM | OVCAR-5 > 100 µM | SF-268 31.8 µM | SK-MEL-2 > 100 µM | SK-MEL-5 45.8 µM | SNB-78 97.9 µM | UACC-62 62.4 µM

CCNC(=O)C#CC(=O)NCC
inactive: 786-0 > 100 µM | A549 > 60.5 µM | CAKI-1 > 100 µM | HL-60 > 39.5 µM | IGROV-1 > 100 µM | LOX IMVI > 83.9 µM | OVCAR-4 > 100 µM | OVCAR-5 > 100 µM | SF-268 53.7 µM | SK-MEL-2 > 100 µM | SK-MEL-5 > 100 µM | SNB-78 > 10 µM | UACC-62 > 100 µM

C[C@]12CCC(=O)C=C1CC[C@@H]1[C@@H]2CC[C@]2(C)C(=O)NC(=O)C[C@@H]12
inactive: 786-0 > 100 µM | A549 > 100 µM | CAKI-1 > 100 µM | HL-60 > 100 µM | IGROV-1 > 100 µM | LOX IMVI > 100 µM | OVCAR-4 > 100 µM | OVCAR-5 > 100 µM | SF-268 > 100 µM | SK-MEL-2 > 100 µM | SK-MEL-5 > 100 µM | SNB-78 > 100 µM | UACC-62 > 100 µM

O=C(Nc1ccc(Cl)c(Cl)c1)C(=O)Nn1c(S)nc2ccccc2c1=O
inactive: 786-0 > 100 µM | A549 > 100 µM | CAKI-1 > 100 µM | HL-60 > 100 µM | IGROV-1 > 100 µM | LOX IMVI > 100 µM | OVCAR-4 > 100 µM | OVCAR-5 > 100 µM | SF-268 > 100 µM | SK-MEL-2 > 100 µM | SK-MEL-5 > 100 µM | SNB-78 > 100 µM | UACC-62 > 100 µM
